Results on one molecule are retold here after patent US4169096A, “Antibiotic compounds” (priority 1977, dated 1979).

Test [1] deals with C. perfringens A9635. Briefly: microbe, parasite or virus in culture. Type of test: cell-based. Particulars: Clostridium perfringens.
The subject of test [2] is Bacteroides fragilis A20932. Kind of test: microbe, parasite or virus in culture.
Test [3] concerns Staphylococcus aureus #52-34. Briefly: MIC, serial two-fold agar dilution, aerobic bacteria. Type of test: cell-based.
In test [4] the test system is C. perfringens A9635. Briefly: microbe, parasite or virus in culture. The class given is cell-based. Conditions: Clostridium perfringens. The source holds these as a separate data set.
Test [5] relates to Staphylococcus aereus Smith. Kind of test: MIC, serial two-fold agar dilution, aerobic bacteria. The class given is cell-based.
For test [6], the system named is Streptococcus pyogenes A9604. The description is as above. Particulars: GC medium (Eiken). Type of test: cell-based.
Test [7] concerns Bacteroides fragilis A20935. Briefly: microbe, parasite or virus in culture.
For a further test, the system named is B. fragilis A20928-1. Briefly: Bactericidal activity (MIC & MBC). Particulars: Bacteroides fragilis, A209281, inoculum size 2.8 × 10^6 cell/ml. The class given is cell-based.
The next test has as its system Micrococcus flavus. Briefly: MIC, serial two-fold agar dilution, aerobic bacteria. The class given is cell-based.
Test [8] relates to Fusobacterium varium ATCC 8501. Kind of test: microbe, parasite or virus in culture. Particulars: ATCC8501.

In brackets after ≈: the same amount, converted by molar mass. Like-named read-outs stand apart in the source and are kept apart here.

Regarding `COC(=O)C1C(C)OC2(C)CC(=O)C3OC12OC(C(C)/C=C(C)/C=C/C(=O)C1=C(O)CN(C)C1=O)C3C` (stereo not shown) [Bu-2313A], the MIC is 0.1 µg/mL (≈ 0.193 µM) with C. perfringens A9635 [1] (A9635, read-out: MIC in GAM broth, inoculum size […] 10^5 cell/ml); 100 µg/mL (≈ 193 µM) in the test with C. perfringens A9635 [1] (A9635, read-out: MIC in GAM broth, inoculum size […] 10^6 cell/ml); 0.2 µg/mL (≈ 0.386 µM) in test [2]; 12.5 µg/mL (≈ 24.2 µM) in test [3]; 0.1 µg/mL (≈ 0.193 µM) against C. perfringens A9635 [4] (A9635); 12.5 µg/mL (≈ 24.2 µM) in test [5]. In addition, the MIC was 0.8 µg/mL (≈ 1.55 µM) in [6]; 0.2 µg/mL (≈ 0.386 µM) in test [7]; 0.03 µg/mL (≈ 0.058 µM) with B. fragilis A20928-1 (broth); 6.3 µg/mL (≈ 12.2 µM) with Micrococcus flavus; 0.1 µg/mL (≈ 0.193 µM) in [8]. Also, the MBC is 12.5 µg/mL (≈ 24.2 µM) with C. perfringens A9635 [4] (A9635, 18 h) and more than 0.8 µg/mL in the test on B. fragilis A20928-1 (growth of less than 100 colonies per plate, 18 hours at 37° C.).
